# US20230279016A1, “Tetrahydropyrazolopyrimidines and Related Analogs for Inhibiting YAP/TAZ-TEAD” (THE KATHOLIEKE UNIVERSITEIT LEUVEN, priority 2021, published 2023)
# Legend:
# Format in all cases: cell-based
# [1] = test system: NCI-H2052 mesothelioma cell line; assay: Mesothelioma cell line proliferation assay, NCI-H2052; settings: NCI-H2052, 6 days with compound, cell viability by ATPlite
# Outline: (§1)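 Cells were seeded at 1500 cells/well in RPMI 1640 with 10% FBS, left overnight, then exposed to DMSO-dissolved compounds in dose-response for 6 days at 37 °C, 5% CO2. Viability was measured by ATPlite luminescence, converted to percent inhibition, and used to derive EC50.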
# [2] = test system: NCI-H226 mesothelioma cell line; assay: Mesothelioma cell line proliferation assay, NCI-H226; settings: Homo sapiens, NCI-H226, 144 h, NCI-H226, 6 days with compound, cell viability by ATPlite
# Outline: as §1
# [3] = test system: YAP/TAZ-TEAD transcription; assay: Reporter gene assay for measuring the inhibition of YAP/TAZ-TEAD transcription (TEAD-responsive element luciferase reporter in Hek293T cells); settings: Homo sapiens, HEK-293T, 24 h, Hek293T cells transiently transfected with TEAD-responsive element luciferase reporter, 24 hours incubation
# Outline: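 Hek293T cells transiently transfected with TEAD-responsive luciferase reporter, exposed to compound for 24 h at 37° C/5% CO2, then read by luminescence. Percent inhibition normalized to vehicle (0%) and positive control inhibitor (100%); EC50 reported as activity ranges.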
"EC50 ([1]; Homo sapiens, NCI-H2052, 144 h) [nM]",EC50 [2] [nM],EC50 [3] [nM],EC50 [1] [nM],Structure (SMILES)
< 1000,< 1000,< 1000,–,"C=CC(=O)NCC1CN(c2ccc(C(F)(F)F)c(F)c2)c2ccnn2C1 (stereo not drawn) [Cpd. No. 015, N-((4-(3-fluoro-4-(trifluoromethyl)phenyl)-4,5,6,7-tetrahydropyrazolo[1,5-a]pyrimidin-6-yl)methyl)acrylamide]"
–,< 1000,< 1000,< 1000,"C=CC(=O)NCC1CN(c2ccc(C(F)(F)F)cc2F)c2ccnn2C1 (stereo not drawn) [Cpd. No. 016, N-((4-(2-fluoro-4-(trifluoromethyl)phenyl)-4,5,6,7-tetrahydropyrazolo[1,5-a]pyrimidin-6-yl)methyl)acrylamide]"
< 1000,< 1000,< 1000,–,"C=CC(=O)NCC1CN(c2ccc(C(F)(F)F)cc2)c2cc(C)nn2C1 (stereo not drawn) [Cpd. No. 029, N-((2-methyl-4-(4-(trifluoromethyl)phenyl)-4,5,6,7-tetrahydropyrazolo[1,5-a]pyrimidin-6-yl)methyl)acrylamide]"
< 1000,< 1000,< 1000,–,"C=CC(=O)NCC1CN(c2ccc(C(F)(F)F)cc2)c2cc(C3CC3)nn2C1 (stereo not drawn) [Cpd. No. 031, N-((2-cyclopropyl-4-(4-(trifluoromethyl)phenyl)-4,5,6,7-tetrahydropyrazolo[1,5-a]pyrimidin-6-yl)methyl)acrylamide]"
< 1000,< 1000,< 1000,–,"C=CC(=O)NCC1CN(c2ccc(C(F)(F)F)cc2)c2cc(CC3CC3)nn2C1 (stereo not drawn) [Cpd. No. 032, N-((2-(cyclopropylmethyl)-4-(4-(trifluoromethyl)phenyl)-4,5,6,7-tetrahydropyrazolo[1,5-a]pyrimidin-6-yl)methyl)acrylamide]"
< 1000,< 1000,< 1000,–,"C=CC(=O)NCC1CN(c2ccc(C(F)(F)F)cc2)c2cc(C(F)(F)F)nn2C1 (stereo not drawn) [Cpd. No. 034, N-((2-(trifluoromethyl)-4-(4-(trifluoromethyl)phenyl)-4,5,6,7-tetrahydropyrazolo[1,5-a]pyrimidin-6-yl)methyl)acrylamide]"
< 1000,1000 to 10000,< 1000,–,"C#CC(=O)NCC1CN(c2ccc(C(F)(F)F)cc2)c2ccnn2C1 (stereo not drawn) [Cpd. No. 038, N-((4-(4-(trifluoromethyl)phenyl)-4,5,6,7-tetrahydropyrazolo[1,5-a]pyrimidin-6-yl)methyl)propiolamide]"
< 1000,< 1000,< 1000,–,"C=C(F)C(=O)NCC1CN(c2ccc(C(F)(F)F)cc2)c2ccnn2C1 (stereo not drawn) [Cpd. No. 039, 2-fluoro-N-((4-(4-(trifluoromethyl)phenyl)-4,5,6,7-tetrahydropyrazolo[1,5-a]pyrimidin-6-yl)methyl)acrylamide]"
> 10000,< 1000,< 1000,–,"C=C(C)C(=O)NCC1CN(c2ccc(C(F)(F)F)cc2)c2ccnn2C1 (stereo not drawn) [Cpd. No. 040, N-((4-(4-(trifluoromethyl)phenyl)-4,5,6,7-tetrahydropyrazolo[1,5-a]pyrimidin-6-yl)methyl)methacrylamide]"
< 1000,< 1000,< 1000,–,"C=CC(=O)NCC1CN(Cc2ccc(C(F)(F)F)cc2)c2ccnn2C1 (stereo not drawn) [Cpd. No. 048, N-((4-(4-(trifluoro-methyl)benzyl)-4,5,6,7-tetrahydropyrazolo[1,5-a]pyrimidin-6-yl)methyl)acrylamide]"
1000 to 10000,< 1000,< 1000,–,"C=CC(=O)NCC1CN(c2ccc(C(F)(F)F)cc2)c2c(Br)cnn2C1 (stereo not drawn) [Cpd. No. 058, N-((3-bromo-4-(4-(trifluoromethyl)phenyl)-4,5,6,7-tetrahydropyrazolo[1,5-a]pyrimidin-6-yl)-methyl)acrylamide]"
< 1000,< 1000,< 1000,–,"C=CC(=O)NCC1Cc2c(cnn2C)N(c2ccc(C(F)(F)F)cc2)C1 (stereo not drawn) [Cpd. No. 068, N-((1-methyl-4-(4-(trifluoromethyl)phenyl)-4,5,6,7-tetrahydro-1H-pyrazolo[4,3-b]pyridin-6-yl)methyl)acrylamide]"
< 1000,< 1000,< 1000,–,"C=CC(=O)NCC1Cc2nn(C)cc2N(c2ccc(C(F)(F)F)cc2)C1 (stereo not drawn) [Cpd. No. 069, N-((2-methyl-4-(4-(trifluoromethyl)phenyl)-4,5,6,7-tetrahydro-2H-pyrazolo[4,3-b]pyridin-6-yl)methyl)acrylamide]"

# The remaining lines, values behind:
Structure (SMILES),"EC50 ([1]; Homo sapiens, NCI-H2052, 144 h) [nM]",EC50 [2] [nM],EC50 [3] [nM],EC50 [1] [nM]
"CS(=O)(=O)NCC1CN(c2ccc(C(F)(F)F)cc2)c2ccnn2C1 (stereo not drawn) [Cpd. No. 027, N-((4-(4-(trifluoromethyl)phenyl)-4,5,6,7-tetrahydropyrazolo[1,5-a]pyrimidin-6-yl)methyl)methanesulfonamide]",> 10000,> 10000,> 20000,–
"C=CC(=O)NCC1CN(Cc2cccc(C(F)(F)F)c2)c2ccnn2C1 (stereo not drawn) [Cpd. No. 052, N-((4-(3-(trifluoro-methyl)benzyl)-4,5,6,7-tetrahydropyrazolo[1,5-a]pyrimidin-6-yl)methyl)acrylamide]",< 1000,< 1000,< 1000,–
"C=CC(=O)NCC1CNc2c(CC#Cc3ccccc3)cnn2C1 (stereo not drawn) [Cpd. No. 059, N-((3-(3-phenylprop-2-yn-1-yl)-4,5,6,7-tetrahydropyrazolo[1,5-a]pyrimidin-6-yl)-methyl)acrylamide]",> 10000,> 10000,< 1000,–
"C=CC(=O)NC1CN(c2ccc(C(F)(F)F)cc2)c2ccnn2C1 (stereo not drawn) [Cpd. No. 061, N-(4-(4-(trifluoromethyl)phenyl)-4,5,6,7-tetrahydropyrazolo[1,5-a]pyrimidin-6-yl)acrylamide]",< 1000,< 1000,< 1000,–
"C=CC(=O)NC1CN(c2ccc(OC(F)(F)F)cc2)c2ccnn2C1 (stereo not drawn) [Cpd. No. 063, N-(4-(4-(trifluoromethoxy)phenyl)-4,5,6,7-tetrahydropyrazolo[1,5-a]pyrimidin-6-yl)acrylamide]",< 1000,< 1000,< 1000,–
"C=CC(=O)NCC1Cc2c(cnn2C)N(c2ccc(OC(F)(F)F)cc2)C1 (stereo not drawn) [Cpd. No. 070, N-((1-methyl-4-(4-(trifluoromethoxy)phenyl)-4,5,6,7-tetrahydro-1H-pyrazolo[4,3-b]pyridin-6-yl)methyl)acrylamide]",< 1000,< 1000,< 1000,–
"C=CC(=O)NCC1Cc2nn(C)cc2N(c2ccc(OC(F)(F)F)cc2)C1 (stereo not drawn) [Cpd. No. 071, N-((2-methyl-4-(4-(trifluoromethoxy)phenyl)-4,5,6,7-tetrahydro-2H-pyrazolo[4,3-b]pyridin-6-yl)methyl)acrylamide]",< 1000,< 1000,< 1000,–
"C=CC(=O)NCC1Cc2c(cnn2Cc2cccc(C(N)=O)c2)N(c2ccc(C(F)(F)F)cc2)C1 (stereo not drawn) [Cpd. No. 080, 3-((6-(acrylamido-methyl)-4-(4-(trifluoromethyl)phenyl)-4,5,6,7-tetrahydro-1H-pyrazolo[4,3-b]pyridin-1-yl)methyl)benzamide]",< 1000,< 1000,< 1000,–
"C=CC(=O)NCC1Cc2nn(Cc3cccc(C(N)=O)c3)cc2N(c2ccc(C(F)(F)F)cc2)C1 (stereo not drawn) [Cpd. No. 081, 3-((6-(acrylamidomethyl)-4-(4-(trifluoromethyl)-phenyl)-4,5,6,7-tetrahydro-2H-pyrazolo[4,3-b]pyridin-2-yl)methyl)benzamide]",< 1000,< 1000,< 1000,–
"O=C1NCCC12CN(c1ccc(C(F)(F)F)cc1)c1ccnn1C2 (stereo not drawn) [Cpd. No. 087, 4-(4-(trifluoromethyl)phenyl)-4,5-dihydro-7H-spiro[pyrazolo[1,5-a]pyrimidine-6,3′-pyrrolidin]-2′-one]",> 10000,> 10000,< 1000,–
"C=CC(=O)N1CCC2(C1)CN(c1ccc(C(F)(F)F)cc1)c1ccnn1C2 (stereo not drawn) [Cpd. No. 088, 1-(4-(4-(trifluoromethyl)phenyl)-4,5-dihydro-7H-spiro[pyrazolo[1,5-a]pyrimidine-6,3′-pyrrolidin]-1′-yl)prop-2-en-1-one]",< 1000,< 1000,< 1000,–
